Data published in patent US20070248701A1, “METHODS AND FORMULATIONS FOR INHIBITING NATURALLY OCCURRING PHOSPHODIESTERASE” (priority 2003, published 2007).
Like-named read-outs stand apart in the source and are kept apart here.

What was measured:
Phosphodiesterase PDE2 [1] = target: T1, Phosphodiesterase PDE2 (Homo sapiens, UniProt O00408); settings: reference compound, historical value; cited from earlier work
Phosphodiesterase PDE3 [2] = target: T2, Phosphodiesterase PDE3 (Homo sapiens, UniProt Q14432); assay: Phosphodiesterase PDE3 enzyme assay; format: biochemical; settings: reference compound tested concurrently, batch 70679; read-out: Concurrent IC50
T2 sequence (Q14432 whole entry): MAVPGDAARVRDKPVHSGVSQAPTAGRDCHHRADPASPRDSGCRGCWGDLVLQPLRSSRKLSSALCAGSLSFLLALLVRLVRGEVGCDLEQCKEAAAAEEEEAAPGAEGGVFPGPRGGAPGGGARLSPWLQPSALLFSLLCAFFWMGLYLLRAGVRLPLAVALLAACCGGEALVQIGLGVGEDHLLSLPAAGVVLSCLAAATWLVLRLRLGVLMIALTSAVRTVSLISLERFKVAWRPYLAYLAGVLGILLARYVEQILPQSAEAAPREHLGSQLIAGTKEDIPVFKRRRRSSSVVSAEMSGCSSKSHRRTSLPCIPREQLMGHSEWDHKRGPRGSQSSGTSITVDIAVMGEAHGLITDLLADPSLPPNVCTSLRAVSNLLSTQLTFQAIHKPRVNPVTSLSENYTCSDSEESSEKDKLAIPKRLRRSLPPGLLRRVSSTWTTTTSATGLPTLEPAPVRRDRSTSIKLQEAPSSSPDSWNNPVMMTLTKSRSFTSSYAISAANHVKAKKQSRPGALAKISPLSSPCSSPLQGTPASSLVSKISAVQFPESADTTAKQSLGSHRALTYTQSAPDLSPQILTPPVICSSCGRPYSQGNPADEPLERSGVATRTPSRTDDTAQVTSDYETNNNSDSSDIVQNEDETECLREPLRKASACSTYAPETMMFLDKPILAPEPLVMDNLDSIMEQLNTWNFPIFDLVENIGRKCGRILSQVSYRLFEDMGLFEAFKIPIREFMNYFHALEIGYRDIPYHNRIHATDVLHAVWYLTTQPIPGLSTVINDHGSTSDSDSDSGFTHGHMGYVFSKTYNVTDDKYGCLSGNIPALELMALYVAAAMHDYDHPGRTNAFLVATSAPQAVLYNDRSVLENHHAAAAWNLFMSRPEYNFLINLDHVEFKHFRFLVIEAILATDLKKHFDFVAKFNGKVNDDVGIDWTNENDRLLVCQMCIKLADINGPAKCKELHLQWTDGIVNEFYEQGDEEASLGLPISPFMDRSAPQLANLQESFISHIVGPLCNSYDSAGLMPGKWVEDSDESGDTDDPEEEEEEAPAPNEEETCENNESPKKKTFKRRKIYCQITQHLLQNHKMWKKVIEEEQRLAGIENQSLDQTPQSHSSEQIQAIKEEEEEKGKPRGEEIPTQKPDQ

Phosphodiesterase PDE2 [3] = target: T1, Phosphodiesterase PDE2; assay: Phosphodiesterase PDE2 enzyme assay; format: biochemical; settings: reference compound tested concurrently, batch 70678; read-out: Concurrent IC50
Phosphodiesterase PDE4 [4] = assay: Phosphodiesterase PDE4 enzyme assay; format: biochemical, human; settings: reference compound tested concurrently, batch 70680; read-out: Concurrent IC50
Phosphodiesterase PDE1 [5] = assay: Phosphodiesterase PDE1 enzyme assay; format: biochemical, bovine; settings: reference compound tested concurrently, batch 70431; read-out: Concurrent IC50
Phosphodiesterase PDE5 [6] = target: T3, Phosphodiesterase PDE5 (Homo sapiens, UniProt O76074); assay: Phosphodiesterase PDE5 enzyme assay; format: biochemical; settings: reference compound tested concurrently, batch 70681; read-out: Concurrent IC50
Phosphodiesterase PDE4 [7] = settings: reference compound, historical value; cited from earlier work
Phosphodiesterase PDE5 [8] = target: T3, Phosphodiesterase PDE5; settings: reference compound, historical value; cited from earlier work
Phosphodiesterase PDE3 [9] = target: T2, Phosphodiesterase PDE3; settings: reference compound, historical value; cited from earlier work
Phosphodiesterase PDE1 [10] = settings: reference compound, historical value; cited from earlier work
Phosphodiesterase PDE6 [11] = target: T4, Phosphodiesterase PDE6 (Bos taurus, UniProt P11541+P23439); settings: reference compound, historical value; cited from earlier work
T4 sequence (P11541 1-859): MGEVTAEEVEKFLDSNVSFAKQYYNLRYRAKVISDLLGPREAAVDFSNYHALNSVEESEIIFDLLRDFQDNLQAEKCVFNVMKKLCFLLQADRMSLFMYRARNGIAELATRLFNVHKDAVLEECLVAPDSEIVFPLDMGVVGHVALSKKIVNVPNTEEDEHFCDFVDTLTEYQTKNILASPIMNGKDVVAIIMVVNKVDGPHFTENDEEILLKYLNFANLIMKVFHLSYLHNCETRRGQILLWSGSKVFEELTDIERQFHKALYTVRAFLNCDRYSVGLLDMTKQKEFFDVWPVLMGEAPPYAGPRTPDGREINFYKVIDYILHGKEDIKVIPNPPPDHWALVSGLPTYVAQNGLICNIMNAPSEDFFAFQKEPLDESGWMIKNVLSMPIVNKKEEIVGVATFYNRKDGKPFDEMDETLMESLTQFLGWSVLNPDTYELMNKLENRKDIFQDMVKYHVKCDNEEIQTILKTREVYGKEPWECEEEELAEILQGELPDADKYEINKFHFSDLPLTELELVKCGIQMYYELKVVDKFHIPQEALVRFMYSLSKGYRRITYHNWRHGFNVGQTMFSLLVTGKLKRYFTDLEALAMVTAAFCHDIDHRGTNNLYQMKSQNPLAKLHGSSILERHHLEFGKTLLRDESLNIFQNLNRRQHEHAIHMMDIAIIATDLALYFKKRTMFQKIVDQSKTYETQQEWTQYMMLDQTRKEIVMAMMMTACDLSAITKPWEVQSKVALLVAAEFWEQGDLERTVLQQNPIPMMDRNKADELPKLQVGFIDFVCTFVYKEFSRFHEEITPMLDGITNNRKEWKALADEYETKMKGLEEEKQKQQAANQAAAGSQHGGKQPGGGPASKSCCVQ
T4 sequence (P23439 1-853): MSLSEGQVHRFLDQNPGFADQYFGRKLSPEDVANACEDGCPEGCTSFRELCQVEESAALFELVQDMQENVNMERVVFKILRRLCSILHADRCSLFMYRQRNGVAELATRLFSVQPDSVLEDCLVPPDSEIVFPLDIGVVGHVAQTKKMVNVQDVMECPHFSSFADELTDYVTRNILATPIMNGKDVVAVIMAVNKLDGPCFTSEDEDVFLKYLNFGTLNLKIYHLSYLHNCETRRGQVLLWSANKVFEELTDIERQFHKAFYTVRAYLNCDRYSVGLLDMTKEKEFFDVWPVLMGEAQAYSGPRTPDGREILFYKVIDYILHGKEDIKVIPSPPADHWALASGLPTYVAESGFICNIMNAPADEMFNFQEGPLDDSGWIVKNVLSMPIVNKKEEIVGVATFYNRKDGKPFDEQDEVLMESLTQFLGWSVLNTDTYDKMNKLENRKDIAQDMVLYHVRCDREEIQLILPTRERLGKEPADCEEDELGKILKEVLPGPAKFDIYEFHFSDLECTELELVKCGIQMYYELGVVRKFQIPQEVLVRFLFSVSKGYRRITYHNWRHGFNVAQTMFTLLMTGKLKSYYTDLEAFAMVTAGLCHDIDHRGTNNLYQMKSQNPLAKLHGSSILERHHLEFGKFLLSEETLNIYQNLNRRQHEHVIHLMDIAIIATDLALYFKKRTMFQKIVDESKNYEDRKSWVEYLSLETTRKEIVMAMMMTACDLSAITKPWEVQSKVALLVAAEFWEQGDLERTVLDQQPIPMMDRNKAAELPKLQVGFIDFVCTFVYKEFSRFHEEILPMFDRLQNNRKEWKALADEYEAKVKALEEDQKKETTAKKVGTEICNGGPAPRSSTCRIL

Phosphodiesterase PDE6 [12] = target: T4, Phosphodiesterase PDE6; assay: Phosphodiesterase PDE6 enzyme assay; format: biochemical, bovine; settings: reference compound tested concurrently, batch 70682; read-out: Concurrent IC50
Description: The test material (TNPJCon) was tested using an Enzyme assays that involve PDE enzymes from both bovine and human origin known as PDE1, PDE2, PDE3, PDE4, PDE6. All of the enzyme assays were run on a 1% concentration of TNPJCon. Please note that the IC50 was not determined.

T1 sequence (O00408 whole entry): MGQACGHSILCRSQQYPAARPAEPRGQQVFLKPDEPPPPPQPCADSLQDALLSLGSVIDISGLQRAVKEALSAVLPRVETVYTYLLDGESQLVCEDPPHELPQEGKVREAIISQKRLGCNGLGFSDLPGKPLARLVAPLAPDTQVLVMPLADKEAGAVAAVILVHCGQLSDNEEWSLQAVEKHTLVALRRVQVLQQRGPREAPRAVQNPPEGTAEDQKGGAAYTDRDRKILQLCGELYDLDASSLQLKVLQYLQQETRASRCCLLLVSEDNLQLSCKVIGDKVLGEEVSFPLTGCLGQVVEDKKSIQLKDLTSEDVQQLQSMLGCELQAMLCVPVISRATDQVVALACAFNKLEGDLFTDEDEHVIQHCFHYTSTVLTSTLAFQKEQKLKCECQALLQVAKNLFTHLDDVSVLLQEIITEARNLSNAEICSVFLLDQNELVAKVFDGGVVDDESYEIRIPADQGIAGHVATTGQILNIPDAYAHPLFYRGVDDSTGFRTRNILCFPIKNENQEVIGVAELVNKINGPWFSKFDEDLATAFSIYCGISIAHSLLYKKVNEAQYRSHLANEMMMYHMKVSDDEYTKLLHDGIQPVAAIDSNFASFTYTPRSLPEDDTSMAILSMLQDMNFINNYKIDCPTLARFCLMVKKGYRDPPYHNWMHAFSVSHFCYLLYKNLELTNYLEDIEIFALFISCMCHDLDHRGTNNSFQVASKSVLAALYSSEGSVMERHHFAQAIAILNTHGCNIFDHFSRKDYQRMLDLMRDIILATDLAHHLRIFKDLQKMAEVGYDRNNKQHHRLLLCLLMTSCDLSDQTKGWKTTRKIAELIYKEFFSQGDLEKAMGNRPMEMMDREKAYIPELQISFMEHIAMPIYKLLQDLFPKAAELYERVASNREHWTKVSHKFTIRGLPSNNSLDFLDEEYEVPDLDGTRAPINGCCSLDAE

IC50 (Phosphodiesterase PDE3 [2]) [µM] | IC50 (Phosphodiesterase PDE2 [3]) [µM] | IC50 (Phosphodiesterase PDE4 [4]) [µM] | IC50 (Phosphodiesterase PDE1 [5]) [µM] | IC50 (Phosphodiesterase PDE5 [6]) [µM] | SMILES | IC50 (Phosphodiesterase PDE2 [1]) [µM] | IC50 (Phosphodiesterase PDE4 [7]) [µM] | IC50 (Phosphodiesterase PDE5 [8]) [µM] | IC50 (Phosphodiesterase PDE3 [9]) [µM] | IC50 (Phosphodiesterase PDE1 [10]) [nM] | IC50 (Phosphodiesterase PDE6 [11]) [nM] | IC50 (Phosphodiesterase PDE6 [12]) [nM]
20.8 | 81 | 30.8 | 3.76 | 65.4 | CC(C)Cn1c(=O)n(C)c(=O)c2[nH]cnc21 [IBMX] | 30 | 6.5 | 63 | 4.6 | 1100 | – | –
– | – | – | – | – | CCCOc1ccccc1-c1nc2nn[nH]c2c(=O)[nH]1 [Zaprinast] | – | – | – | – | – | 220 | 281
